According to paper PMC8400955 (Pharmaceuticals, 2021):
Several values for one entry are separate records, joined by “and”; a condition that tells them apart may be missing. Equal values may be shown once. Entries after “also recorded” stand apart in the source; their conditions may differ. Read-outs that look alike come from different tables or passages of the source.

Experiments:
[1] = Single-dose PK and bioavailability of ZB716 in rats; assay type: in vivo; conditions: Sprague Dawley, rat, plasma; for bioavailability: PO 6 mg/kg/day vs IV 2 mg/kg/day
[2] = Metabolic stability in dog hepatocytes; assay type: in vitro ADME
Protocol: (§1) Hepatocytes of humans (#X008001), dogs (#M00205), rats (#M00005), and mice (#M005052) were purchased from BioIVT, NY, USA. Monkey hepatocytes were procured from RILD, Shanghai, China. The metabolic stability of ZB716 in human, monkey, dog, rat and mouse hepatocytes was investigated by incubating ZB716 with human, monkey, dog, rat, and mouse hepatocytes (0.5 × 10^6 cells/mL), or with incubation medium only.
(§2) parent disappearance vs. incubation time curve.
(§3) Scaled-up Clint = kV/N × Scaling Factor
(§4) metabolite formed during the reaction.

[3] = test system: dog hepatocytes; assay: Metabolic stability in dog hepatocytes; assay type: in vitro ADME; conditions: 1 μM
Protocol: as §1, §2, §3, §4

[4] = Metabolic stability in human hepatocytes; assay type: in vitro ADME
Protocol: as §1, §2, §3, §4

[5] = test system: human hepatocytes; assay: Metabolic stability in human hepatocytes; assay type: in vitro ADME; conditions: 1 μM
Protocol: as §1, §2, §3, §4

[6] = Metabolic stability in rat hepatocytes; assay type: in vitro ADME
Protocol: as §1, §2, §3, §4

[7] = test system: rat hepatocytes; assay: Metabolic stability in rat hepatocytes; assay type: in vitro ADME; conditions: 1 μM
Protocol: as §1, §2, §3, §4

[8] = target: CYP2C9 (Homo sapiens, UniProt P11712); assay: CYP inhibition in human liver microsomes, CYP2C9; assay type: in vitro ADME; conditions: HLM, marker substrate Diclofenac
CYP2C9, sequence (P11712 whole entry): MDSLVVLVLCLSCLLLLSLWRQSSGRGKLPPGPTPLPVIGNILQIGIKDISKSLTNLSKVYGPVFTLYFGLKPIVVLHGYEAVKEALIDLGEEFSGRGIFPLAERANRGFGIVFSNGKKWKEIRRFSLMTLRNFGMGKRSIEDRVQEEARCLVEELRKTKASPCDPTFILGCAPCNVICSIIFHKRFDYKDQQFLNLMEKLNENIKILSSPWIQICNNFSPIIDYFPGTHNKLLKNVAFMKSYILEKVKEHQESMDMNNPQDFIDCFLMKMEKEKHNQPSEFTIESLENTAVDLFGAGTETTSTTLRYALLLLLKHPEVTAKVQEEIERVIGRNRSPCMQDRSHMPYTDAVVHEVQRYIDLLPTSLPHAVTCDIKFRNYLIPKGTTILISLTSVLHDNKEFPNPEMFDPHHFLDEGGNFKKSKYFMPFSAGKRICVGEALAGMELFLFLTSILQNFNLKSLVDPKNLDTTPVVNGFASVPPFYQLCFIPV
Protocol: (§5) . The inhibition of CYP2B6 and 3A4 (when midazolam was used as the substrate) by ZB716 was not observed. The inhibitory potential of ZB716 on human CYP enzyme activities appears relatively low.
(§6) The final concentrations of ZB716 in the incubation system were 0, 0.05, 0.15, 0.5, 1.5, 5, and 15 µM (final organic solvent concentration ≤ 1%). […] . […] The concentrations of the isoform-specific metabolites derived from marker substrates were measured by UPLC–MS/MS. The IC50 values were calculated from the percentages of the rate of the metabolite formation relative to non-inhibited controls vs. the concentrations of ZB716 or positive control inhibitors. All incubations were performed in triplicate. The mean of the enzyme activity (% of non-inhibited control) for each concentration was plotted against the log inhibitor concentration, and fitted to an IC50 curve.

[9] = target: T1, CYP2C8 (Homo sapiens, UniProt P10632); assay: CYP phenotyping, recombinant CYP2C8
T1 sequence (P10632 1-490): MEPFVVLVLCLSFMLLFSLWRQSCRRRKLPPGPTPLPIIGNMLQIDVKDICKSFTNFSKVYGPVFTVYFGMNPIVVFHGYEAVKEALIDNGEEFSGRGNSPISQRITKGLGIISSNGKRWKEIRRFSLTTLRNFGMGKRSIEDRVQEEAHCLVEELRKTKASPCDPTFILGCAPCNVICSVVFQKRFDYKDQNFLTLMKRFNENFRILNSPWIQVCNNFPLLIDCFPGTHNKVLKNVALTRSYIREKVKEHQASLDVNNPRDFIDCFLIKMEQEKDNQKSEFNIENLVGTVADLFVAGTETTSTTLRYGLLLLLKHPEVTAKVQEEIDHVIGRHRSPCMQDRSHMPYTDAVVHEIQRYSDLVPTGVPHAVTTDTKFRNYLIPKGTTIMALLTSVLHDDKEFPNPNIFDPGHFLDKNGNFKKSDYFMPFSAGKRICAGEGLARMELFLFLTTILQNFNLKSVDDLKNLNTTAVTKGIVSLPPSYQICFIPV

[10] = test system: monkey hepatocytes; assay: Metabolic stability in monkey hepatocytes; assay type: in vitro ADME; conditions: 1 μM
Protocol: as §1, §2, §3, §4

[11] = Metabolic stability in monkey hepatocytes; assay type: in vitro ADME
Protocol: as §1, §2, §3, §4

[12] = target: CYP2D6 (Homo sapiens, UniProt P10635); assay: CYP phenotyping, recombinant CYP2D6
CYP2D6, sequence (P10635 whole entry): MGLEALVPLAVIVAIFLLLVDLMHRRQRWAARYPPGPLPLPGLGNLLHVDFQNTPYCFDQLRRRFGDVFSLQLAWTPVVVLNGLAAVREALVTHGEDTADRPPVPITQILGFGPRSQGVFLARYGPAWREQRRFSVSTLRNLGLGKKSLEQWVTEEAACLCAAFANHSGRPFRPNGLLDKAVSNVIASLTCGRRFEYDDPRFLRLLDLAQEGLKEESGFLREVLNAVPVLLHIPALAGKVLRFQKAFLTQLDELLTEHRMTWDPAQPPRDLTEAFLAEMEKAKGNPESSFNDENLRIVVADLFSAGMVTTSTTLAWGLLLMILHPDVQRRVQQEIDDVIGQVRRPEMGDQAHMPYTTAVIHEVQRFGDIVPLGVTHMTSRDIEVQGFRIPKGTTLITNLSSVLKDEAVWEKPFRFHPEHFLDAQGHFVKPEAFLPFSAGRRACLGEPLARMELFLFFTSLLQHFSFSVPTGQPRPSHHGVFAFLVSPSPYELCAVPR

[13] = target: CYP3A4 (Homo sapiens, UniProt P08684); assay: CYP inhibition in human liver microsomes, CYP3A4; assay type: in vitro ADME; design: 2D6, and 3A4) in human liver microsomes (0.2 mg/mL) in the presence of NADPH; from tissue; host or cells: human liver microsomes; conditions: HLM
CYP3A4, sequence (P08684 whole entry): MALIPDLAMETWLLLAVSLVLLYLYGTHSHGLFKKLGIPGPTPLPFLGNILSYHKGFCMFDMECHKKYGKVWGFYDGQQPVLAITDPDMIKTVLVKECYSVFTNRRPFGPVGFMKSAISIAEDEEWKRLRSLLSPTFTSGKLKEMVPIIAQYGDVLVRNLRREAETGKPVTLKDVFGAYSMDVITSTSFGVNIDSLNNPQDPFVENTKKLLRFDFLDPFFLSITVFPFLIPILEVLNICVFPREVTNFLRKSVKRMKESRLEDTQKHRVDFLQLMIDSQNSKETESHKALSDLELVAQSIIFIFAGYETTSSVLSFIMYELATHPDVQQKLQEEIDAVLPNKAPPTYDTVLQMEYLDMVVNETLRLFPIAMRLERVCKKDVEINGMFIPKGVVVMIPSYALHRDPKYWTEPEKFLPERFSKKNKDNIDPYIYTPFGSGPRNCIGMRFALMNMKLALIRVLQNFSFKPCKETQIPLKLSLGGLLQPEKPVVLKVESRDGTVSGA
Protocol: as §5, §6

[14] = female, single dose, IV 2 mg/kg/day, F
[15] = female, single dose, PO 6 mg/kg/day, F
[16] = female, single dose, PO 30 mg/kg/day, F
[17] = female, single dose, PO 100 mg/kg/day, F
[18] = female, single dose, PO 400 mg/kg/day, F
[19] = male, single dose, IV 2 mg/kg/day, M
[20] = male, single dose, PO 6 mg/kg/day, M
[21] = male, single dose, PO 30 mg/kg/day, M
[22] = male, single dose, PO 100 mg/kg/day, M
[23] = male, single dose, PO 400 mg/kg/day, M
[24] = read-out: Estimated In Vitro t1/2

`C[C@]12CC[C@@H]3c4ccc(B(O)O)cc4C[C@@H](CCCCCCCCC[S+]([O-])CCCC(F)(F)C(F)(F)F)[C@H]3[C@@H]1CC[C@@H]2O` (some centres unmarked) [ZB716, fulvestrant-3-boronic acid] showed a Tmax ([1]; both sexes, single oral administration, mostly, post-dose, read-out: Tmax) of 30 to 120 min, a bioavailability ([1]; female, F) of 5.98% and an AUC(0-t) [1, 14] of 6440 ng·h/mL. The Cmax [1, 14] was 4530 ng/mL, the Tmax ([1]; female, single dose, IV 2 mg/kg/day, F, read-out: Tmax (median)) was 5 min and the AUC(0-t) [1, 15] was 1160 ng·h/mL. For the same compound, the Cmax [1, 15] was 347 ng/mL, the Tmax ([1]; female, single dose, PO 6 mg/kg/day, F, read-out: Tmax (median)) was 30 min and the AUC(0-t) [1, 16] was 15700 ng·h/mL. The Cmax [1, 16] was 3520 ng/mL, the Tmax ([1]; female, single dose, PO 30 mg/kg/day, F, read-out: Tmax (median)) was 60 min and the AUC(0-t) [1, 17] was 30500 ng·h/mL. For the same compound, the Cmax [1, 17] was 3590 ng/mL, the Tmax ([1]; female, single dose, PO 100 mg/kg/day, F, read-out: Tmax (median)) was 30 min and the AUC(0-t) [1, 18] was 55600 ng·h/mL. The Cmax [1, 18] was 4310 ng/mL, the Tmax ([1]; female, single dose, PO 400 mg/kg/day, F, read-out: Tmax (median)) was 60 min and the bioavailability ([1]; male, M) was 6.36%. It also gave an AUC(0-t) [1, 19] of 4910 ng·h/mL, a Cmax [1, 19] of 5370 ng/mL and a Tmax ([1]; male, single dose, IV 2 mg/kg/day, M, read-out: Tmax (median)) of 5 min. It also gave an AUC(0-t) [1, 20] of 936 ng·h/mL, a Cmax [1, 20] of 321 ng/mL and a Tmax ([1]; male, single dose, PO 6 mg/kg/day, M, read-out: Tmax (median)) of 30 min. It also gave an AUC(0-t) [1, 21] of 5410 ng·h/mL, a Cmax [1, 21] of 1720 ng/mL and a Tmax ([1]; male, single dose, PO 30 mg/kg/day, M, read-out: Tmax (median)) of 120 min. The AUC(0-t) [1, 22] was 12500 ng·h/mL, the Cmax [1, 22] was 3010 ng/mL and the Tmax ([1]; male, single dose, PO 100 mg/kg/day, M, read-out: Tmax (median)) was 30 min. It also gave an AUC(0-t) [1, 23] of 32600 ng·h/mL, a Cmax [1, 23] of 2860 ng/mL and a Tmax ([1]; male, single dose, PO 400 mg/kg/day, M, read-out: Tmax (median)) of 30 min. For the same compound, the half-life at 1 μM [2, 24] was 26.7 ± 0.4 min, the hepatocyte CLint at 1 μM ([2]; read-out: In Vitro Clint) was 51.9 ± 0.7 µL/min/1e6 cells and the CLint scaled at 1 μM ([2]; read-out: Scaled-Up Clint) was 357 ± 5 mL/min/kg. The “Remaining at 120 min” value [3] was 6.99 ± 0.46%, the half-life at 1 μM [4, 24] was 34.9 ± 1 min and the hepatocyte CLint at 1 μM ([4]; read-out: In Vitro Clint) was 39.7 ± 1.1 µL/min/1e6 cells. For the same compound, the CLint scaled at 1 μM ([4]; read-out: Scaled-Up Clint) was 101 ± 3 mL/min/kg, the “Remaining at 120 min” value [5] was 7.98 ± 0.7% and the half-life at 1 μM [6, 24] was 28.4 ± 0.9 min. The hepatocyte CLint at 1 μM ([6]; read-out: In Vitro Clint) was 48.7 ± 1.5 µL/min/1e6 cells, the CLint scaled at 1 μM ([6]; read-out: Scaled-Up Clint) was 228 ± 7 mL/min/kg and the “Remaining at 120 min” value [7] was 5.19 ± 0.32%. For the same compound, the IC50 [8] was 4.77 µM, the half-life at 2 µM ([9]; human) was 11.1 ± 1.2 min and the Clint ([9]; recombinant CYP2C8, 2 µM ZB716) was 1.25 ± 0.14 µL/min/pmol CYP. For the same compound, the “Remaining at 120 min” value [10] was 4.41 ± 0.46%, the half-life at 1 μM [11, 24] was 27.6 ± 2 min and the hepatocyte CLint at 1 μM ([11]; read-out: In Vitro Clint) was 50.3 ± 3.6 µL/min/1e6 cells. The CLint scaled at 1 μM ([11]; read-out: Scaled-Up Clint) was 181 ± 13 mL/min/kg, the half-life at 2 µM ([12]; human) was 18.3 ± 3.3 min and the Clint ([12]; recombinant CYP2D6, 2 µM ZB716) was 0.773 µL/min/pmol CYP and 0.773 ± 0.142 µL/min/pmol CYP. For the same compound, the IC50 ([13]; CYP3A4-M, marker substrate Midazolam) was “not observed; also recorded: No Inhibition” and the IC50 ([13]; CYP3A4-T, marker substrate Testosterone, read-out: IC50) was 11.2 µM.
